Results from patent US9309199B2, “Inhibitors of catechol O-methyl transferase and their use in the treatment of psychotic disorders” (Merck Sharp & Dohme Corp., priority 2010, dated 2016).

Target: T1, MB-COMT (Homo sapiens, UniProt P21964)
T1 construct: 6xHis or 10xHis (C)
T1 sequence (P21964 1-271): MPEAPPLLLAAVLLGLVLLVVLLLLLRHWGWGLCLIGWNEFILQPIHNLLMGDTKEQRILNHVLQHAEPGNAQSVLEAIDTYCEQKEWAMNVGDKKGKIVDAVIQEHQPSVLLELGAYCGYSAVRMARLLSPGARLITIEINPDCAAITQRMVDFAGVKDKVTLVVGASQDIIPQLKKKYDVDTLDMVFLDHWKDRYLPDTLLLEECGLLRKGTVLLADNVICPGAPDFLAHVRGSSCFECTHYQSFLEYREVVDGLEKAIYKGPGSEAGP
Assay: COMT inhibition, esculetin fluorescence or fluorescence polarization assay (MB-COMT)
Assay type: biochemical
Conditions: purified human COMT Val158 variant, membrane-bound
Excerpt: The activity of the compounds in accordance with the present invention as COMT inhibitors may be readily determined without undue experimentation using a fluorescence or fluorescence polarization (FP) methodology that is well known in the art (Kurkela M et al., Anal Biochem (331) 2004, 198-200 and Graves, T L et al., Anal Biochem (373) 2008, 296-306).
The fluorescence assay was based on methylation of a substrate (6,7-dihydroxycoumarin or ‘esculetin’) by COMT to produce a highly fluorescent product (7-hydroxy-6-methoxycoumarin or scopoletin'). […] A 10 mM compound stock in DMSO was used to prepare 10 point 3-fold dilution series and 1 uL of appropriate dilution was plated into assay wells (black 96 well round bottom polystyrene plates from Costar; catalog #3792). […] The formation of product (scopoletin) was monitored over time by fluorescence (excitation 340 nm, emission 460 nm, no lag, 100 μs integration time, 5 flashes, top read) using a Tecan Safire^2 plate reader.

Compared with Cn1cc(-c2ccc3ccccc3c2)cc(O)c1=O [Compound #1, 3-hydroxy-1-methyl-5-naphthalen-2-ylpyridin-2(1H)-one], Cn1cc(-c2cccc(-c3ccccc3)c2)cc(O)c1=O [Example 4, 5-Biphenyl-3-yl-3-hydroxy-1-methylpyridin-2(1H)-one] is 1.5-fold lower in IC50: 0.179 µM for the first, 0.118 µM for the second.

Compared with O=c1[nH]cc(-c2ccc(Cl)c(C(F)(F)F)c2)cc1O [Compound #2, 5-[4-chloro-3-(trifluoromethyl)-phenyl]-3-hydroxypyridin-2(1H)-one], N#Cc1cccc(-c2c[nH]c(=O)c(O)c2)c1 [Compound #8, 3-(5-hydroxy-6-oxo-1,6-dihydropyridin-3-yl)benzonitrile] is 6.4-fold higher in IC50: 0.031 µM for the first, 0.197 µM for the second. The first is the more potent here.

With Cn1cc(-c2ccc(Cl)cc2Cl)cc(O)c1=O [Example 1, 5-(2,4-Dichloro-phenyl)-3-hydroxy-1-methyl-1H-pyridin-2-one] the IC50 was 0.392 µM.
